Reference: the supplement of paper PMC13380429

Assays:
[1] = tested on: A549-ACE2 infected with SARS-CoV-2; assay: morphology score (similarity to uninfected cells); higher = more like uninfected cells; conditions: 24 h
[2] = tested on: Calu-3; assay: drug sensitivity score (DSS) for viability; higher = more toxic; extreme values may be limits of the assay; conditions: 72 h
[3] = tested on: HepG2; assay: as above; conditions: 72 h
[4] = tested on: Caco-2; assay: as above; conditions: 72 h
[5] = tested on: Vero E6; assay: as above; conditions: 72 h
[6] = tested on: U2OS; assay: as above; conditions: 72 h
[7] = tested on: A549-ACE2; assay: phospholipidosis EC50; higher = less potent phospholipidosis inducer
[8] = tested on: A549-ACE2 infected with SARS-CoV-2; assay: SARS-CoV-2 infection rate relative to DMSO; higher = more infection; conditions: 24 h
[9] = tested on: Calu-3; assay: cell viability relative to DMSO; higher = less toxic; conditions: 72 h
[10] = tested on: HepG2; assay: as above; conditions: 72 h
[11] = tested on: Caco-2; assay: as above; conditions: 72 h
[12] = tested on: Vero E6; assay: as above; conditions: 72 h
[13] = tested on: U2OS; assay: as above; conditions: 72 h
[14] = tested on: A549-ACE2 infected with SARS-CoV-2; assay: cell count relative to DMSO; higher = less toxic; conditions: 24 h
[15] = tested on: Calu-3; assay: relative viability EC50 (midpoint between 100% and the lowest measured viability); higher = less toxic; conditions: 72 h
[16] = tested on: HepG2; assay: as above; conditions: 72 h
[17] = tested on: A549-ACE2; assay: drug-induced phospholipidosis relative to tamoxifen; higher = more phospholipidosis
[18] = tested on: Caco-2; assay: relative viability EC50 (midpoint between 100% and the lowest measured viability); higher = less toxic; conditions: 72 h
[19] = tested on: Vero E6; assay: as above; conditions: 72 h
[20] = tested on: U2OS; assay: as above; conditions: 72 h

COc1cc(C(=O)NC2CCN(C)CC2)c(F)cc1Nc1ncc2c(n1)N(C1CCCC1)CC(F)(F)C(=O)N2C [TAK-960]
Conditions | morphology score, 0.1 µM | morphology score, 0.3 µM | morphology score, 1 µM | morphology score, 3 µM | phospholipidosis EC50, 24 h [µM]
[1] | -0.06 | -0.01 | 0.15 | 0.58 | –
[7] | – | – | – | – | 3.2

Conditions | drug sensitivity score
[2] | 4.3
[3] | 21.8
[4] | 10.9
[5] | 12.5
[6] | 12.5

C1CCC(C(CC2CCCCN2)C2CCCCC2)CC1 (stereo not drawn) [perhexiline]
Conditions | SARS-CoV-2 infection rate [%] | cell count [%] | cell viability [%] | morphology score | phospholipidosis EC50 [µM]
[1], 0.1 µM | – | – | – | -0.02 | –
[1], 0.3 µM | – | – | – | -0.25 | –
[1], 1 µM | – | – | – | 0.35 | –
[1], 3 µM | – | – | – | 0.91 | –
[7], 24 h | – | – | – | – | 0.945
[7], 48 h | – | – | – | – | 2.48
[7], 72 h | – | – | – | – | 4.51
[8], 0.1 µM | 100 | – | – | – | –
[8], 0.3 µM | 104 | – | – | – | –
[8], 1 µM | 79 | – | – | – | –
[8], 3 µM | 36 | – | – | – | –
[9], 1 nM | – | – | 108 | – | –
[9], 10 nM | – | – | 101 | – | –
[9], 100 nM | – | – | 92.6 | – | –
[9], 1000 nM | – | – | 101 | – | –
[9], 10000 nM | – | – | 1.9 | – | –
[10], 1 nM | – | – | 98.9 | – | –
[10], 10 nM | – | – | 99.5 | – | –
[10], 100 nM | – | – | 103 | – | –
[10], 1000 nM | – | – | 95.1 | – | –
[10], 10000 nM | – | – | 38.6 | – | –
[11], 1 nM | – | – | 92.7 | – | –
[11], 10 nM | – | – | 101 | – | –
[11], 100 nM | – | – | 93.9 | – | –
[11], 1000 nM | – | – | 90.9 | – | –
[11], 10000 nM | – | – | 63.5 | – | –
[12], 1 nM | – | – | 106 | – | –
[12], 10 nM | – | – | 103 | – | –
[12], 100 nM | – | – | 99.5 | – | –
[12], 1000 nM | – | – | 95.3 | – | –
[12], 10000 nM | – | – | 71.1 | – | –
[13], 1 nM | – | – | 101 | – | –
[13], 10 nM | – | – | 103 | – | –
[13], 100 nM | – | – | 103 | – | –
[13], 1000 nM | – | – | 98.6 | – | –
[13], 10000 nM | – | – | 62 | – | –
[14], 0.1 µM | – | 99 | – | – | –
[14], 0.3 µM | – | 96 | – | – | –
[14], 1 µM | – | 105 | – | – | –
[14], 3 µM | – | 123 | – | – | –

Conditions | drug sensitivity score | relative viability EC50 [µM]
[2] | 5.4 | –
[3] | 4.1 | –
[4] | 2.9 | –
[5] | 2 | –
[6] | 2 | –
[15] | – | 3.24
[16] | – | 2.51

drug-induced phospholipidosis [%], [17]
Conditions | 0.3 µM | 0.833333 µM | 3.33333 µM | 6.66667 µM | 10 µM | 30 µM
24 h | 3.79 | 25.8 | 87.2 | 113 | 106 | 26.8
48 h | 4.34 | 16.1 | 84.3 | 113 | 121 | –
72 h | 5.16 | 14.3 | 68.3 | 99.9 | 120 | –

CN1CCN(CCCN2c3ccccc3Sc3ccc(Cl)cc32)CC1 [prochlorperazine]
Conditions | SARS-CoV-2 infection rate [%] | cell count [%] | cell viability [%] | morphology score | phospholipidosis EC50 [µM]
[1], 0.3 µM | – | – | – | 0 | –
[1], 3 µM | – | – | – | 0.84 | –
[1], 10 µM | – | – | – | 0.79 | –
[1], 30 µM | – | – | – | 0.19 | –
[7], 24 h | – | – | – | – | 3.19
[7], 48 h | – | – | – | – | 4.05
[7], 72 h | – | – | – | – | 12.5
[8], 0.3 µM | 95 | – | – | – | –
[8], 3 µM | 29 | – | – | – | –
[8], 10 µM | 12 | – | – | – | –
[8], 30 µM | 50 | – | – | – | –
[9], 1 nM | – | – | 106 | – | –
[9], 10 nM | – | – | 103 | – | –
[9], 100 nM | – | – | 105 | – | –
[9], 1000 nM | – | – | 105 | – | –
[9], 10000 nM | – | – | 93.2 | – | –
[10], 1 nM | – | – | 107 | – | –
[10], 10 nM | – | – | 102 | – | –
[10], 100 nM | – | – | 97 | – | –
[10], 1000 nM | – | – | 106 | – | –
[10], 10000 nM | – | – | 55.5 | – | –
[11], 1 nM | – | – | 100 | – | –
[11], 10 nM | – | – | 84.1 | – | –
[11], 100 nM | – | – | 96.9 | – | –
[11], 1000 nM | – | – | 99.8 | – | –
[11], 10000 nM | – | – | 76.6 | – | –
[12], 1 nM | – | – | 96 | – | –
[12], 10 nM | – | – | 92.5 | – | –
[12], 100 nM | – | – | 101 | – | –
[12], 1000 nM | – | – | 97.4 | – | –
[12], 10000 nM | – | – | 81 | – | –
[13], 1 nM | – | – | 103 | – | –
[13], 10 nM | – | – | 94.5 | – | –
[13], 100 nM | – | – | 98.6 | – | –
[13], 1000 nM | – | – | 94 | – | –
[13], 10000 nM | – | – | 91.4 | – | –
[14], 0.3 µM | – | 100 | – | – | –
[14], 3 µM | – | 123 | – | – | –
[14], 10 µM | – | 117 | – | – | –
[14], 30 µM | – | 64 | – | – | –

Conditions | drug sensitivity score | relative viability EC50 [µM]
[2] | 0 | –
[3] | 1.9 | –
[4] | 0.9 | –
[5] | 0.9 | –
[6] | 0 | –
[15] | – | > 10
[18] | – | > 10
[19] | – | > 10
[20] | – | > 10

drug-induced phospholipidosis [%], [17]
Conditions | 0.3 µM | 0.833333 µM | 3.33333 µM | 6.66667 µM | 10 µM | 30 µM
24 h | 1.08 | 10.5 | 48.6 | 76.3 | 92.2 | 56.6
48 h | 0.82 | 7.81 | 45.8 | 83.3 | 94.4 | –
72 h | 3.57 | 9.54 | 35 | 75 | 104 | –

COc1ccc2cc1Oc1ccc(cc1)C[C@H]1c3cc(c(OC)cc3CCN1C)Oc1c(OC)c(OC)cc3c1[C@H](C2)N(C)CC3 [tetrandrine]
Conditions | SARS-CoV-2 infection rate [%] | cell count [%] | cell viability [%] | morphology score | phospholipidosis EC50 [µM]
[1], 0.3 µM | – | – | – | 0.37 | –
[1], 3 µM | – | – | – | 0.79 | –
[1], 10 µM | – | – | – | 0.07 | –
[1], 30 µM | – | – | – | -0.15 | –
[7], 24 h | – | – | – | – | 7
[7], 48 h | – | – | – | – | 10.2
[7], 72 h | – | – | – | – | 5.6
[8], 0.3 µM | 92 | – | – | – | –
[8], 3 µM | 23 | – | – | – | –
[8], 10 µM | 21 | – | – | – | –
[8], 30 µM | 42 | – | – | – | –
[9], 1 nM | – | – | 88.3 | – | –
[9], 10 nM | – | – | 109 | – | –
[9], 100 nM | – | – | 91.3 | – | –
[9], 1000 nM | – | – | 99.9 | – | –
[9], 10000 nM | – | – | 29.1 | – | –
[10], 1 nM | – | – | 104 | – | –
[10], 10 nM | – | – | 102 | – | –
[10], 100 nM | – | – | 97.7 | – | –
[10], 1000 nM | – | – | 94.1 | – | –
[10], 10000 nM | – | – | 71.5 | – | –
[11], 1 nM | – | – | 100 | – | –
[11], 10 nM | – | – | 97.9 | – | –
[11], 100 nM | – | – | 92.1 | – | –
[11], 1000 nM | – | – | 95.4 | – | –
[11], 10000 nM | – | – | 79.5 | – | –
[12], 1 nM | – | – | 100 | – | –
[12], 10 nM | – | – | 94.2 | – | –
[12], 100 nM | – | – | 94.6 | – | –
[12], 1000 nM | – | – | 94.4 | – | –
[12], 10000 nM | – | – | 92.6 | – | –
[14], 0.3 µM | – | 106 | – | – | –
[14], 3 µM | – | 115 | – | – | –
[14], 10 µM | – | 119 | – | – | –
[14], 30 µM | – | 79 | – | – | –

Conditions | drug sensitivity score | relative viability EC50 [µM]
[2] | 3.9 | –
[3] | 2.1 | –
[4] | 0.7 | –
[5] | 0 | –
[15] | – | 3.15
[18] | – | > 10
[19] | – | > 10

drug-induced phospholipidosis [%], [17]
Conditions | 0.3 µM | 0.833333 µM | 3.33333 µM | 6.66667 µM | 10 µM | 30 µM
24 h | 16.2 | 29.5 | 61.4 | 78 | 92.7 | 115
48 h | 16.2 | 22.2 | 51.1 | 78.8 | 101 | 145
72 h | 8.49 | 16.5 | 49.2 | 80.6 | 103 | 176
